The source of these data is patent US8563257B2, “Sensitive and rapid methods of using chimeric receptors to identify autoimmune disease and assess disease severity” (Diagnostic Hybrids, Inc., priority 2000, dated 2013).

SMILES strings stand for the structures. Several values for one entry are separate records, joined by “and”; a condition that tells them apart may be missing. Equal entries are not always repeated. Entries after “also recorded” stand apart in the source; their conditions may differ.

Assay [1] relates to CHO-RMc4luc cells. Kind of assay: Alternate glucocorticoids vs. dexamethasone in the non-starved CHO-RMc4 assay. In kind it is cell-based, Chinese hamster. Conditions: for signal intensity (RLU) compared to 40 μM dexamethasone: FIG. 17. Here is the method: The data was collected in accordance with the protocol outlined in Example 17. The data was calculated as the difference (Δ) in RLU values or SRR % values for each glucocorticoid (GC) concentration by subtracting the RLU value or SRR % value for the Normal control at that concentration from the RLU value or SRR % value for the Positive control at that concentration, respectively.
Four GCs were examined in this study: i) Prednisone (Sigma); ii) Hydrocortisone (Sigma); iii) Fluticasone Propionate (Sigma); and iv) Cortisone (Sigma). A stock concentration (100 mM) of each GC was made in DMSO. 1:10 (10 mM) and 1:100 (1 mM) dilutions, in DMSO, were then made from the 100 mM stock. All DMSO/GC stocks were clear with no visible precipitate.
Growth Media containing different concentrations of each GC were made as follows: i) 100 μM GC Medium: 5 μL of 100 mM GC Stock+5 mL SR097 (w/o Dex); ii) 50 μM GC Medium: 2.5 μL of 100 mM GC Stock+5 mL SR097 (w/o Dex); iii) 10 μM GC Medium: 5 μL of 10 mM GC Stock+5 mL SR097 (w/o Dex); iii) 1 μM GC Medium: 5 μL of 1 mM GC Stock+5 mL SR097 (w/o Dex); and iv) 0.1 μM GC Medium: 0.5 μL of 1 mM GC Stock+5 mL SR097 (w/o Dex). […] Additional controls included Growth Medium containing 1 μl/ml dimethylsulfoxide (DMSO) as a solvent control and Growth Medium without any glucocorticoids.
Each assay was performed by using two (2) microwell plates for each glucocorticoid tested. The sample layouts for each plate are identified below: […]

The test system of assay [2] is CHO-RMc4luc cells. Put plainly: Effect of dexamethasone on starved CHO-RMc4luc cells (luciferase). In kind it is cell-based, Chinese hamster. The settings on record: for % of S/B, Patient #18 Serum: 0 uM = 100; for RLU, Patient #18 Serum, Average / S/B, Patient #18 Serum / RLU, Patient #18 Serum, Test 1-3 / RLU, Reference Serum, Avg / RLU, Reference Serum, Test 1-3: starved cells; for RLU, Patient #18 Serum, Test 1-3 / RLU, Reference Serum, Test 1-3: listed as DEX. Here is the method:
CHO-Rluc (041307A) and CHO-RMc4luc (062707, P8, 3e6/ml) cells were each brought up in 5 ml CHO growth media.
The cells were then rinsed with reaction buffer and serum (diluted 1:11) was added to 100 μl of reaction buffer already in the well. Serums used were: i) reference 121506R; ii) PC 121506P; and iii) patient #18 TSI serum.
After 4 hours of induction the plates were lysed with 75 ul of Bright Glo®, lysed for 5 minutes, and then read on a Veritas luminometer.

[3] abbreviates: glucocorticoid 0.1 μM in Growth Medium.
Setting [4] is: glucocorticoid 1 μM in Growth Medium.
[5] abbreviates: glucocorticoid 10 μM in Growth Medium.
[6] abbreviates: glucocorticoid 50 μM in Growth Medium.
The mark [7] stands for this setting: glucocorticoid 100 μM in Growth Medium.
The mark [8] stands for this setting: 40 μM in Growth Medium (control).

Turning to `C[C@]12CCC(=O)C=C1CC[C@@H]1[C@@H]2C(=O)C[C@@]2(C)[C@H]1CC[C@]2(O)C(=O)CO` [Cortisone], the “signal intensity (RLU) compared to 40 μM dexamethasone” value in the assay on CHO-RMc4luc cells [1] is on record as “equivalent to dexamethasone; also recorded: equal signal intensities”. For the same compound, the “Δ (positive - normal) RLU” value in the assay with CHO-RMc4luc cells [1] (setting [3]) stood at 10494 RLU; in the assay with CHO-RMc4luc cells [1] (setting [4]), 9474 RLU; in the assay with CHO-RMc4luc cells [1] (setting [5]), 9847 RLU; in the assay with CHO-RMc4luc cells [1] (setting [6]), 8738 RLU; in the assay on CHO-RMc4luc cells [1] (setting [7]), 8106 RLU. In addition, the “Δ (positive - normal) SRR % s” value in the assay on CHO-RMc4luc cells [1] (setting [3]) was 169%; in the assay with CHO-RMc4luc cells [1] (setting [4]), 151%; in the assay on CHO-RMc4luc cells [1] (setting [5]), 151%; in the assay on CHO-RMc4luc cells [1] (setting [6]), 162%; in the assay with CHO-RMc4luc cells [1] (setting [7]), 176%.

`C[C@@H]1C[C@H]2[C@@H]3CCC4=CC(=O)C=C[C@]4(C)[C@@]3(F)[C@@H](O)C[C@]2(C)[C@@]1(O)C(=O)CO` [Dexamethasone, dexamethasone]: in the assay on CHO-RMc4luc cells [2] (DEX 12.5 uM), the “% of S/B, Patient #18 Serum” value was 180%; the “RLU, Patient #18 Serum, Average” value is on record as 5165 RLU; the “S/B, Patient #18 Serum” value turned out to be 39.8; the “RLU, Patient #18 Serum, Test 1-3” value was 4710 RLU and 5456 RLU and 5330 RLU. Moreover, in the assay on CHO-RMc4luc cells [2] (DEX 25 uM), the “% of S/B, Patient #18 Serum” value was 183%; the “RLU, Patient #18 Serum, Average” value is 5194 RLU; the “RLU, Reference Serum, Avg” value is reported as 127 RLU; the “S/B, Patient #18 Serum” value is 40.6. Further, in the assay with CHO-RMc4luc cells [2] (DEX 25 uM), the “RLU, Patient #18 Serum, Test 1-3” value was 5172 RLU and 5151 RLU and 5260 RLU; the “RLU, Reference Serum, Test 1-3” value was 129 RLU and 132 RLU. In the assay on CHO-RMc4luc cells [2] (DEX 40 uM), the “% of S/B, Patient #18 Serum” value is 182%; the “RLU, Patient #18 Serum, Average” value turned out to be 5092 RLU; the “RLU, Reference Serum, Avg” value amounted to 126 RLU; the “S/B, Patient #18 Serum” value was 40.4. For the same compound, in the assay with CHO-RMc4luc cells [2] (DEX 40 uM), the “RLU, Patient #18 Serum, Test 1-3” value is 5039 RLU and 5198 RLU and 5038 RLU; the “RLU, Reference Serum, Test 1-3” value was 128 RLU. Besides, in the assay with CHO-RMc4luc cells [2] (DEX 50 uM), the “% of S/B, Patient #18 Serum” value was determined as 181%; the “RLU, Patient #18 Serum, Average” value was 5023 RLU; the “RLU, Reference Serum, Avg” value is 125 RLU; the “S/B, Patient #18 Serum” value turned out to be 40.1. For the same compound, in the assay on CHO-RMc4luc cells [2] (DEX 50 uM), the “RLU, Patient #18 Serum, Test 1-3” value is 4861 RLU and 5298 RLU and 4909 RLU; the “RLU, Reference Serum, Test 1-3” value was 135 RLU. For the same compound, in the assay with CHO-RMc4luc cells [2] (DEX 100 uM), the “% of S/B, Patient #18 Serum” value turned out to be 140%; the “RLU, Patient #18 Serum, Average” value worked out at 3492 RLU; the “RLU, Reference Serum, Avg” value was 112 RLU; the “S/B, Patient #18 Serum” value is on record as 31.1. Moreover, the “RLU, Patient #18 Serum, Test 1-3” value in the assay on CHO-RMc4luc cells [2] (DEX 100 uM) was 3542 RLU and 3414 RLU and 3521 RLU. In the assay on CHO-RMc4luc cells [2] (DEX 12. uM), the “RLU, Reference Serum, Avg” value was 129 RLU; the “RLU, Reference Serum, Test 1-3” value is 129 RLU and 141 RLU. Moreover, in the assay with CHO-RMc4luc cells [1] (setting [8]), the “Δ (positive - normal) RLU” value came to 9375 RLU and the “Δ (positive - normal) SRR % s” value was 282%.

On to `CCC(=O)O[C@]1(C(=O)SCF)[C@H](C)C[C@H]2[C@@H]3C[C@H](F)C4=CC(=O)C=C[C@]4(C)[C@@]3(F)[C@@H](O)C[C@@]21C` [Fluticasone Proprionate, Fluticasone Propionate], for which the “signal intensity (RLU) compared to 40 μM dexamethasone” value in the assay on CHO-RMc4luc cells [1] is recorded as “equal signal intensities”. Besides, the “Δ (positive - normal) RLU” value in the assay with CHO-RMc4luc cells [1] (setting [3]) was 9768 RLU; in the assay on CHO-RMc4luc cells [1] (setting [4]), 8806 RLU; in the assay with CHO-RMc4luc cells [1] (setting [5]), 8774 RLU; in the assay with CHO-RMc4luc cells [1] (setting [6]), 6996 RLU; with CHO-RMc4luc cells [1] (setting [7]) it was 6366 RLU. In addition, the “Δ (positive - normal) SRR % s” value was found to be 161% in the assay with CHO-RMc4luc cells [1] (setting [3]); 148% in the assay with CHO-RMc4luc cells [1] (setting [4]); 168% in the assay on CHO-RMc4luc cells [1] (setting [5]); 137% in the assay with CHO-RMc4luc cells [1] (setting [6]); 155% with CHO-RMc4luc cells [1] (setting [7]).

Regarding `C[C@]12CCC(=O)C=C1CC[C@@H]1[C@@H]2[C@@H](O)C[C@@]2(C)[C@H]1CC[C@]2(O)C(=O)CO` [Hydrocortisone], in the assay with CHO-RMc4luc cells [1], the “signal intensity (RLU) compared to 40 μM dexamethasone” value is on record as “equivalent to dexamethasone; also recorded: equal signal intensities”. The “Δ (positive - normal) RLU” value with CHO-RMc4luc cells [1] (setting [3]) stood at 9889 RLU; in the assay on CHO-RMc4luc cells [1] (setting [4]), 9149 RLU; in the assay on CHO-RMc4luc cells [1] (setting [5]) it was 9757 RLU; in the assay with CHO-RMc4luc cells [1] (setting [6]), 8950 RLU; in the assay with CHO-RMc4luc cells [1] (setting [7]) it was 8348 RLU. In addition, the “Δ (positive - normal) SRR % s” value in the assay with CHO-RMc4luc cells [1] (setting [3]) was found to be 158%; in the assay with CHO-RMc4luc cells [1] (setting [4]) it was 155%; in the assay with CHO-RMc4luc cells [1] (setting [5]), 153%; with CHO-RMc4luc cells [1] (setting [6]), 178%; in the assay with CHO-RMc4luc cells [1] (setting [7]) it was 180%.

With `C[C@]12C=CC(=O)C=C1CC[C@@H]1[C@@H]2C(=O)C[C@@]2(C)[C@H]1CC[C@]2(O)C(=O)CO` [Prednisone], the “signal intensity (RLU) compared to 40 μM dexamethasone” value with CHO-RMc4luc cells [1] is on record as “equal signal intensities”. The “Δ (positive - normal) RLU” value in the assay on CHO-RMc4luc cells [1] (setting [3]) is 8717 RLU; with CHO-RMc4luc cells [1] (setting [4]) it was 8219 RLU; in the assay with CHO-RMc4luc cells [1] (setting [5]), 8429 RLU; in the assay with CHO-RMc4luc cells [1] (setting [6]) it was 8107 RLU. The “Δ (positive - normal) SRR % s” value was determined as 150% in the assay with CHO-RMc4luc cells [1] (setting [3]), 133% with CHO-RMc4luc cells [1] (setting [4]), 142% in the assay on CHO-RMc4luc cells [1] (setting [5]) and 165% in the assay on CHO-RMc4luc cells [1] (setting [6]).
